The record followed here is the METLIN SMRT retention time set (Domingo-Almenara et al. 2019).

The data set can be described thus: gradient 5% acetonitrile 3 min, to 50% in 2 min, to 85% in 15 min, held 3 min, 100 µL/min. Conditions: column: Zorbax Extend-C18 2.1 x 50 mm; eluents: water / acetonitrile, 0.1% formic acid. The procedure, abridged:
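The mobile phases were water and acetonitrile, each with 0.1% formic acid, pumped at 100 μL/min through a Zorbax Extend-C18 column (2.1 × 50 mm, 1.8 μm). Pure standards were injected as mixtures of ~100 molecules and detected by a quadrupole time-of-flight mass spectrometer in positive and negative ionization mode. Retention time came from computationally picked adduct peaks, each inspected by hand.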
Compound `CN1C(=O)c2cc(C(=O)N3CCOCC3)nn2CC1(C)C(=O)NCc1ccccc1` (configuration not stated) returned an RP-LC retention time of 632 s.

Compound `Cc1ccc2c(NCc3ccc4c(c3)OCO4)c(-c3nc(C)no3)cnc2n1` had an RP-LC retention time of 1070 s.

The compound `O=c1ccc(S(=O)(=O)N2CCOCC2)cn1Cc1ccccc1F` gave an RP-LC retention time of 723 s.

`COc1ccc(CCNC(=O)Nc2nnc(-c3ccc(F)cc3F)o2)cc1` had an RP-LC retention time of 788 s.

`COc1ccc(NC(=O)N2CCC(c3nc(C(=O)N(C)C)c(C)o3)CC2)cc1Cl` returned an RP-LC retention time of 840 s.

As for `Cc1cc(C(=O)NCCc2ccco2)c2c(=O)n(C)c(=O)n(C)c2n1`, the RP-LC retention time amounted to 688 s.

`CCOc1ccc(-c2[nH]ncc2CNS(=O)(=O)c2ccc(C(F)(F)F)cc2)cc1` displayed an RP-LC retention time of 918 s.

Turning to `O=C(Cn1cccc1-c1nnc(-c2ccccc2)o1)NCc1cccnc1`, the RP-LC retention time is 617 s.

Compound `Cc1ccc(Cn2c(N3CCCC(C(=O)Nc4cc(C)cc(C)c4)C3)nc3ccsc3c2=O)cc1` (configuration not stated) yielded an RP-LC retention time of 1160 s.

For `O=C(Cn1nc(-n2cccn2)ccc1=O)Nc1cc(C(F)(F)F)ccc1Cl`, the RP-LC retention time was 730 s.

The compound `O=c1[nH]c2ccc(NCc3ccccc3)cc2[nH]1` yielded an RP-LC retention time of 571 s.

`O=C(c1ccnnc1)N1C[C@@H](COCC2CC2)[C@H](c2ccccn2)C1` yielded an RP-LC retention time of 654 s.

On to `Cc1nc(-c2ccc3c(c2)CCN3C(=O)Cc2ccsc2)cs1`, for which the RP-LC retention time came out at 980 s.

As for `CNC(=O)[C@@H]1CN(C(=O)c2ccoc2C)C[C@H]1c1nc(C)no1`, the RP-LC retention time was 612 s.

`CCn1nnc2cc(-c3noc(CNC(=O)c4ccccc4)n3)ccc21` showed an RP-LC retention time of 772 s.

Compound `CC(NC(=O)c1ccccc1F)C(=O)N1CCN(c2ccccn2)CC1` (configuration not stated) displayed an RP-LC retention time of 574 s.

In the case of `CCc1noc(-c2ccnc(-n3ncc(C(=O)NCC4CC4)c3C)c2)n1`, the RP-LC retention time is 1110 s.

In turn, `CCN(CC)S(=O)(=O)c1ccc2nc(NCc3ccc4c(c3)OCO4)cnc2c1` gave an RP-LC retention time of 964 s.

The compound `Cc1cccc(-c2noc(C3CCCN3C(=O)C3CC(=O)N(c4ccc(C)c(C)c4)C3)n2)c1` (configuration not stated) had an RP-LC retention time of 1030 s.

As for `Cc1ccsc1C(=O)N1CCC2(CC1)N=C(c1ccc(Cl)cc1)NO2`, the RP-LC retention time came to 896 s.

As for `Cn1c(N2CCCN(C(=O)CCn3c(C4CCCCC4)nc4ccccc43)CC2)cc(=O)n(C)c1=O`, the RP-LC retention time is 610 s.

The compound `Cc1ccc(C(=O)N2CCc3ccc(CNC(=O)NC(C)C)cc32)cc1` had an RP-LC retention time of 808 s.

Take `C[C@H](NC(=O)c1cc2ccccc2[nH]1)C(=O)NCCc1c[nH]c2ccccc12`: the RP-LC retention time amounted to 1150 s.

In the case of `Cc1cccc(NC(=O)N2CCC(OC3CCN(S(C)(=O)=O)CC3)CC2)c1C`, the RP-LC retention time was 718 s.

In the case of `CCCNC(=O)c1ccc2ncnc(N3CCCC3)c2c1`, the RP-LC retention time is 576 s.

`CN(C)C(=O)c1csc(S(=O)(=O)N2CCC(C(=O)NCc3ccccc3Cl)CC2)c1` displayed an RP-LC retention time of 784 s.

Turning to `COCCN1C(=O)c2ccccc2C(C(=O)NCCCN2CCOCC2)C1c1cccs1` (configuration not stated), the RP-LC retention time is 805 s.

Turning to `O=C(Cc1csc2nc(-c3ccccc3)cn12)NC1CCCc2ccccc21` (configuration not stated), the RP-LC retention time came out at 851 s.

Compound `CCn1c(C(=O)NCCc2ccccc2)cc2sc(Cl)cc21` yielded an RP-LC retention time of 1160 s.

For the compound `CC(=O)N1CCc2cc(-c3ccc(C(=O)N4CCN(c5ncccn5)CC4)cc3)ccc21`, the RP-LC retention time was found to be 771 s.

`CCCc1noc(-c2ccc(-n3ncc(C(=O)NC4CC4)c3C)nc2)n1` returned an RP-LC retention time of 865 s.

`COCCOc1ccc(N2CCN(CCn3ncc4c3nc(N)n3nc(-c5ccco5)nc43)CC2)cc1` came in with an RP-LC retention time of 665 s.

On to `Cc1cccc(C)c1NC(=O)Cn1cnc2nc3c(cc2c1=O)CC(C)CC3` (configuration not stated), for which the RP-LC retention time is 758 s.

For the compound `CCCc1ccc(S(=O)(=O)N2CCC(C(=O)NCc3csc(-c4ccccc4)n3)CC2)cc1`, the RP-LC retention time is 1090 s.

With `CCc1ccc(NC(=O)CCS(=O)(=O)c2ccc3c(c2)CCCN3C(C)=O)cc1`, the RP-LC retention time amounted to 808 s.

The compound `CCOc1ccc(CNC(=O)C2CCCN2S(=O)(=O)c2cc3c(cc2Cl)NC(=O)CO3)cc1` (configuration not stated) gave an RP-LC retention time of 760 s.

For the compound `O=C(Nc1ccc2c(c1)OCCO2)C1CCCN(S(=O)(=O)Cc2ccc(F)cc2)C1` (configuration not stated), the RP-LC retention time stood at 905 s.

As to `CCC1CCCCN1CCCNC(=O)CCc1cc2cc(OC)ccc2[nH]c1=O` (configuration not stated), the RP-LC retention time stood at 596 s.

`O=C(O)c1ccccc1-c1ccccc1C(=O)Nc1nc2ccccc2s1` registered an RP-LC retention time of 867 s.

As for `Cc1cc(=O)n(CC(=O)Nc2ccccc2)c(N2CCOCC2)n1`, the RP-LC retention time turned out to be 628 s.

`CC(C)COc1cc(=O)n2c(c1C(=O)NCCCN1CCCCC1)CCCCC2` yielded an RP-LC retention time of 584 s.

`CC(NC(=O)c1ccc(C(F)(F)F)cc1)C(=O)Nc1nc2ccccc2[nH]1` (configuration not stated) had an RP-LC retention time of 641 s.

Regarding `Cc1nc(-c2csc(S(=O)(=O)N3CCC(C(=O)Nc4ccc(C(C)C)cc4)CC3)c2)no1`, the RP-LC retention time was 1090 s.

`COCCCNC(=O)c1nn(-c2ccc(Cl)cc2)c2c(=O)n(C)cnc12` returned an RP-LC retention time of 716 s.

The compound `Cn1cc(-c2ccc3ncc(Cc4ccc5ncccc5c4)n3n2)cn1` had an RP-LC retention time of 582 s.

Regarding `O=S(=O)(c1cc(F)cc(F)c1)N1CCC(c2noc(-c3cccc(F)c3)n2)CC1`, the RP-LC retention time is 1170 s.

On to `CCOCCCNC(=O)N1CCC(c2noc(-c3cnccn3)n2)C1` (configuration not stated), for which the RP-LC retention time worked out at 614 s.

The compound `CS(=O)(=O)Nc1cccc(NC(=O)C2CCN(CC(=O)Nc3ccc(F)cc3)CC2)c1` yielded an RP-LC retention time of 564 s.

`CCN(CC)S(=O)(=O)c1ccc2c(c1)N(CC(=O)N1CCCCCC1)C(=O)C1CCCCN21` (configuration not stated): the RP-LC retention time was found to be 996 s.

`CCOc1cc(=O)n2c(c1C(=O)Nc1ccc(Cl)cc1C)CCCC2` displayed an RP-LC retention time of 786 s.

For the compound `CCOC(=O)c1cccc(NC(=O)C2CCN(C(=O)C3Sc4ccccc4NC3=O)CC2)c1` (configuration not stated), the RP-LC retention time was 812 s.

As for `OC(COCc1ccc(Cl)cc1)CN1CCCCC1` (configuration not stated), the RP-LC retention time came to 580 s.

Compound `Cc1ccc2c(c1)C1CC(C)(O2)N(c2cccc(C(=O)NCc3ccco3)c2)C(=O)N1` (configuration not stated) displayed an RP-LC retention time of 801 s.

Consider `C=CCn1c(=O)c2ccccc2n(Cc2nc(-c3ccc(OCC)c(OC)c3)no2)c1=O`, for which the RP-LC retention time worked out at 682 s.

As to `Cc1c(Cl)cccc1NC(=O)CCc1nc(CSc2nnc(-c3ccccc3)o2)no1`, the RP-LC retention time was determined as 949 s.

`COc1ccc(CNS(=O)(=O)c2cn(C(C)C)c3ncccc23)cc1` gave an RP-LC retention time of 841 s.

`Cc1c(C(=O)N2CCN(c3ccccn3)CC2)sc2nc3n(c(=O)c12)CCC3` came in with an RP-LC retention time of 571 s.

The compound `Cc1[nH]c(C(=O)N2CCCC(C(=O)NC(C)CCc3ccccc3)C2)c(C)c1C(=O)OC(C)C` (configuration not stated) displayed an RP-LC retention time of 955 s.

Regarding `COc1cc(NC(=O)N2CCN(Cc3nc4ccc(C)cc4o3)CC2)cc(OC)c1OC`, the RP-LC retention time came out at 669 s.

Consider `CCCN(C)c1nccn2c(=O)n(CC(=O)Nc3ccc(F)cc3F)nc12`, for which the RP-LC retention time was 673 s.

For the compound `Cc1cccc(NC(=O)N2CCCC2c2nc(-c3cccc(Cl)c3)no2)c1` (configuration not stated), the RP-LC retention time was determined as 1100 s.

The compound `Cc1cc(Cl)ccc1S(=O)(=O)N1CCC2(CC1)c1nccn1CCN2C` came in with an RP-LC retention time of 697 s.

In the case of `COC[C@@H](c1ccc(C(F)(F)F)cc1)N1CCN(C2(C)CCN(C(=O)c3c(C)ncnc3C)CC2)C[C@@H]1C`, the RP-LC retention time was determined as 744 s.

Regarding `COc1ccc2c(ccn2CCNC(=O)C2CC(=O)N(c3n[nH]c4ccccc34)C2)c1` (configuration not stated), the RP-LC retention time stood at 722 s.

Compound `CCOC(=O)Nc1cccc(C(F)(F)F)c1` gave an RP-LC retention time of 890 s.

Compound `COc1ccc(NC(=O)Cn2cccc(-c3nc(-c4ccc(Br)cc4)no3)c2=O)cc1` had an RP-LC retention time of 925 s.

Take `COc1ccc(F)cc1S(=O)(=O)N1C[C@@H](F)C[C@H]1C(=O)N1CCCCC1`: the RP-LC retention time is 769 s.

Compound `Cc1cc(C(=O)N2CCC(c3noc(N)c3C(C)C)CC2)c(C)o1` yielded an RP-LC retention time of 759 s.

`COc1ccc(Cl)cc1C(=O)N1CCN(c2cc(C)nc(N3CCOCC3)n2)CC1` had an RP-LC retention time of 644 s.

In the case of `c1cncc(CN2CCc3c(sc4ncnc(N5CCOCC5)c34)C2)c1`, the RP-LC retention time turned out to be 649 s.

As to `COc1cccc(CCNC(=O)CN2C(=O)CSc3cccn3-c3ccccc32)c1`, the RP-LC retention time was determined as 900 s.

`CN(C)S(=O)(=O)c1ccc(C(=O)Nc2sc3c(c2C#N)CC(C)(C)NC3(C)C)cc1` returned an RP-LC retention time of 574 s.

In turn, `CCC(CC)C(=O)N1C[C@H](c2nc(-c3ccncc3)no2)[C@@H](C)C1` came in with an RP-LC retention time of 793 s.

Consider `O=C(C1CCN(c2cnc(N3CCCCC3)nc2)CC1)N1CCOCC1`, for which the RP-LC retention time was determined as 599 s.

`CON=C(C(=O)N[C@@H]1C(=O)N2C(C(=O)O)=C(CSc3nnnn3C)CS[C@H]12)c1csc(N)n1`: the RP-LC retention time worked out at 621 s.

In turn, `CC1(C)CC(=O)c2cn(-c3ccc(Cl)cc3)c(=O)c(C(=O)N3CCC(N4CCCCC4)CC3)c2C1` had an RP-LC retention time of 667 s.

Take `O=C(Nc1ccc(OCc2nnc(-c3ccccc3)o2)cc1)c1cncc(Br)c1`: the RP-LC retention time is 883 s.
